Results from PubChem BioAssay AID1117327 (Cheminformatics & Chemogenomics Research Group (CCRG), …, 2015).
“And” between values parts separate entries of the source, which are not always exact repeats. Equal entries are not always repeated. The source made the active and inactive calls. No rule for the calls is given here. Starred links: 1 amine or outer side, 2 acyl side, 3 side chain; linkers in the order of their positions; H or OH if unused. Positions of bridges follow the written chain, without caps; N, C: chain ends. Non-standard residues stand in square brackets, D forms with d. Residues, ends and D or L forms follow the SMILES beside them. Chains are numbered I, II in the order given. Actinocin(9to1) = Cc1c2oc3c(C)ccc(C(=O)[*:1])c3nc-2c(C(=O)[*:2])c(N)c1=O; NMeV = CN[C@H](C(=O)O)C(C)C; Sar = CNCC(=O)O

What follows are molecules tested on C2C12 + WNT3A conditioned medium, alkaline phosphatase (assay: alkaline phosphatase induction in C2C12 cells, dose response, cell-based, WNT3A-conditioned medium (AID 1117327)).

Row | Structure (SMILES) | IC50
1 | COCc1c(C(C)C)nc(C(C)C)c(/C=C/[C@@H](O)C[C@@H](O)CC(=O)O)c1-c1ccc(F)cc1 | > 20000 nM (inactive)
2 | CC[C@@]1(O)C(=O)OCc2c1cc1n(c2=O)Cc2cc3c(CN(C)C)c(O)ccc3nc2-1 | 17.9 nM
3 | O[C@@H](c1cc(C(F)(F)F)nc2c(C(F)(F)F)cccc12)[C@H]1CCCCN1 | > 20000 nM (inactive)
4 | COc1cc([C@@H]2c3cc4c(cc3[C@@H](O[C@@H]3O[C@@H]5CO[C@@H](C)O[C@@H]5[C@H](O)[C@@H]3O)[C@H]3COC(=O)[C@H]23)OCO4)cc(OC)c1O | > 20000 nM (inactive)
5 | CCC1=C[C@@H]2CN(C1)Cc1c([nH]c3ccccc13)[C@@](C(=O)OC)(c1cc3c(cc1OC)N(C)[C@H]1[C@@](O)(C(=O)OC)[C@H](OC(C)=O)[C@]4(CC)C=CCN5CC[C@]31[C@@H]54)C2 | 10.1 nM
6 | CN(C)c1ccc(C(=C2C=CC(=[N+](C)C)C=C2)c2ccccc2)cc1 | 363 nM
7 | CC[C@]1(O)C[C@H]2CN(CCc3c([nH]c4ccccc34)[C@@](C(=O)OC)(c3cc4c(cc3OC)N(C=O)[C@H]3[C@@](O)(C(=O)OC)[C@H](OC(C)=O)[C@]5(CC)C=CCN6CC[C@]43[C@@H]65)C2)C1 | 5.1 nM
8 | CCCCCCCCCCCCCC[N+](C)(C)C | > 20000 nM (inactive)
9 | COC(=O)Nc1nc2ccc(Sc3ccccc3)cc2[nH]1 | 438 nM
10 | C=C(C)[C@H]1Cc2c(ccc3c2O[C@@H]2COc4cc(OC)c(OC)cc4[C@@H]2C3=O)O1 | 254 nM
11 | Oc1c(I)cc(Cl)c2cccnc12 | 5400 nM (inactive)
12 | Cc1c2oc3c(C)ccc(C(=O)N[C@@H]4C(=O)N[C@H](C(C)C)C(=O)N5CCC[C@H]5C(=O)N(C)CC(=O)N(C)[C@@H](C(C)C)C(=O)O[C@@H]4C)c3nc-2c(C(=O)N[C@@H]2C(=O)N[C@H](C(C)C)C(=O)N3CCC[C@H]3C(=O)N(C)CC(=O)N(C)[C@@H](C(C)C)C(=O)O[C@@H]2C)c(N)c1=O (I: T[dV]P[Sar][NMeV] / II: T[dV]P[Sar][NMeV]; ester I:1-I:C, II:1-II:C; linker I:N-II:N via Actinocin(9to1)) | 1.5 nM
13 | OCCN1CCN(CCCN2c3ccccc3Sc3ccc(Cl)cc32)CC1 | > 20000 nM (inactive)
14 | CCCCCCCCCCCCCCC[C@H](O)[C@@H](N)CO | > 20000 nM (inactive)
15 | O=c1c(-c2ccccc2)c1-c1ccccc1 | 3620 nM
16 | CCCOc1ccc2nc(NC(=O)OC)[nH]c2c1 | 88.1 nM
17 | CC[C@]1(O)C[C@@H]2CN(CCc3c([nH]c4ccccc34)[C@@](C(=O)OC)(c3cc4c(cc3OC)N(C)[C@H]3[C@@](O)(C(=O)OC)[C@H](OC(C)=O)[C@]5(CC)C=CCN6CC[C@]43[C@@H]65)C2)C1 | > 20 µM (inactive) and 8.9 nM
18 | c1ccc2c(c1)Sc1ccccc1N2CC1CN2CCC1CC2 (configuration not stated) | > 20000 nM (inactive)
19 | CN(Cc1cnc2nc(N)nc(N)c2n1)c1ccc(C(=O)N[C@@H](CCC(=O)O)C(=O)O)cc1 | 11.6 nM
20 | CCN(CC)CCNc1ccc(CO)c2sc3ccccc3c(=O)c12 | 2670 nM
21 | COc1cccc2c1C(=O)c1c(O)c3c(c(O)c1C2=O)C[C@@](O)(C(=O)CO)C[C@@H]3O[C@H]1C[C@H](N)[C@H](O[C@@H]2CCCCO2)[C@H](C)O1 | 3950 nM

Row | Structure (SMILES) | IC50
22 | CN1CC[C@H](c2c(O)cc(O)c3c(=O)cc(-c4ccccc4Cl)oc23)[C@H](O)C1 | 461 nM
23 | O=C(CCl)c1ccc(Cl)cc1Cl | > 20000 nM (inactive)
24 | CCCCc1ccc2nc(NC(=O)OC)[nH]c2c1 | 68.2 nM
25 | O=[N+]([O-])c1ccc(O)c2ncccc12 | 6360 nM (inactive)
26 | COc1cc([C@@H]2c3cc4c(cc3[C@H](O)[C@H]3COC(=O)[C@H]23)OCO4)cc(OC)c1OC | 9.1 nM
27 | COC(=O)Nc1nc2ccc(C(=O)c3ccccc3)cc2[nH]1 | 245 nM
28 | Oc1c(Cl)cc(Cl)cc1Sc1cc(Cl)cc(Cl)c1O | > 20000 nM (inactive)
29 | Cc1ccc2c(Br)cc(Br)c(O)c2n1 | > 20000 nM (inactive)
30 | C[n+]1c2cc(N)ccc2cc2ccc(N)cc21 (tested in a mixture with another compound) | 1600 nM
31 | CSc1ccc2c(c1)C(N1CCN(C)CC1)Cc1ccccc1S2 (configuration not stated) | > 20000 nM (inactive)
32 | Cc1ccc2nc(N)[nH]c(=O)c2c1Sc1ccncc1 | 244 nM
33 | Cc1nc2ccc(CN(C)c3ccc(C(=O)N[C@@H](CCC(=O)O)C(=O)O)s3)cc2c(=O)[nH]1 | 4.2 nM
34 | Cc1cc2c(C(C)C)c(O)c(O)c(C=O)c2c(O)c1-c1c(C)cc2c(C(C)C)c(O)c(O)c(C=O)c2c1O | > 20000 nM (inactive)
35 | C#C[C@]1(O)CC[C@H]2[C@@H]3CCc4cc(OC5CCCC5)ccc4[C@H]3CC[C@@]21C | > 20000 nM (inactive)
36 | CN(C)CCCN1c2ccccc2Sc2ccc(C(F)(F)F)cc21 | > 20000 nM (inactive)
37 | CCCCCCNC(=O)n1cc(F)c(=O)[nH]c1=O | 5550 nM (inactive)
38 | O=C1c2c(O)ccc(O)c2C(=O)c2c(NCCNCCO)ccc(NCCNCCO)c21 | 1510 nM
39 | COc1cccc2c1C(=O)c1c(O)c3c(c(O)c1C2=O)C[C@@](O)(C(C)=O)C[C@@H]3O[C@H]1C[C@H](N)[C@H](O)[C@H](C)O1 | 6.1 nM
40 | CC[C@@]1(O)C(=O)OCc2c1cc1n(c2=O)Cc2c-1nc1ccccc1c2/C=N/OC(C)(C)C | 3.2 nM
41 | NC(=NCCCCCCN=C(N)/N=C(\N)Nc1ccc(Cl)cc1)/N=C(\N)Nc1ccc(Cl)cc1 | > 20000 nM (inactive)
42 | Cc1cc(CC(C)CC(C)(C)C)n(O)c(=O)c1 (configuration not stated) | > 20000 nM (inactive)
